# In patent US5153173A, “N-acyl derivatives of the peptidoglycan monomer, pharmaceutically acceptable salts thereof, their preparation and use as immunomodulators and immunoadjuvants” (Pliva Farmaceutska, priority 1990, dated 1992):
# Where “and” joins values, the source holds several entries; their conditions need not be identical. Equal values may be shown once.
# Experiments:
# [1] = Eur. J. Cancer Oncol. 19 (1983); Cancer Immunol. Immunother. 15 (1983), 18 (1984); cited from earlier work
# [2] = cited from earlier work
# spleen lymphocytes = assay: Number of spleen lymphocytes of CBA mice after a single i.v. dose; type: in vivo, CBA male mice; parameters: No spleen cells: unit not given beside the values; settings: for No spleen cells, % (control = 100) / No spleen cells: CBA male mice, single i.v. dose 200 μg/mouse; for No spleen cells, % (control = 100): relative to control of the same experiment; for reduction of the number of spleen lymphocytes in comparison to the control values / increase of the number of the spleen lymphocytes: absolute number in 1 mL; for reduction of the number of spleen lymphocytes in comparison to the control values / effect upon the number of spleen lymphocytes / increase of the number of the spleen lymphocytes: CBA mice, i.v. 200 μg/mouse; for No spleen cells: absolute number of spleen lymphocytes in 1 ml, value ± spread
# Procedure: (§1) The biological activity of the claimed compounds was tested on CBA male mice, 2-2.5 months old. The animals had been adapting to the laboratory conditions at least one week prior to each testing. The effectiveness of the N-acyl derivative of PGM was compared with the results achieved in control mice goups which were administered a physiological solution (negative control) and the original PGM (positive control). All tested substances were administered to the organism by intravenous (i.v.) route in a single dose of 200 μg/mouse and 10 mg/kg resp. The following effects of the immunopharmacological activity were surveyed: spleen weight, number of lymphocytes and number of PFC (plaque forming cells) according to the method of Jerne (in: Cell Bound Antibodies, Whister Institute Press, Philadelphia (1963), p.109). The spleen weight is expressed in mg. The number of the spleen lymphocytes is expressed as the absolute number in 1 ml, whereas the PFC are expressed by way of their total number and by their activity 10^6 spleen lymphocytes. The test groups and the corresponding control groups resp. comprised each 5-7 mice. The activity of each N-acyl derivative of PGM was examined at least three times in various periods. The statistical analysis was performed with the parametric Student t-test, applying the original computer programme Stat Works. The significance of the differences was assessed by two-tailed test at the level of acceptance equal or less than 5%. The summarized results of the effects of individual N-acyl derivatives on the parameters of immune response are listed in Table 1.
# [3] = test system: PFC (plaque forming cells); assay: Number of PFC (plaque forming cells), method of Jerne, in CBA mice; type: in vivo, CBA male mice; settings: for Abs. PFC, % (control = 100) / PFC/l mil, % (control = 100) / PFC/l mil / Abs. PFC: CBA male mice, single i.v. dose 200 μg/mouse; for Abs. PFC, % (control = 100) / PFC/l mil, % (control = 100): relative to control of the same experiment; for PFC/l mil: PFC per 10^6 spleen lymphocytes; for PFC/l mil / Abs. PFC: value ± spread; for PFC activity with respect to the number of the spleen lymphocytes, significance / increase of PFC / overall PFC activity, significance (words): Student t-test versus control; for Abs. PFC: total number of PFC
# Procedure: as §1
# [4] = Spleen weight of CBA mice after a single i.v. dose; type: in vivo, CBA male mice; settings: for Spleen weight, % (control = 100) / Spleen weight: CBA male mice, single i.v. dose 200 μg/mouse (10 mg/kg); for Spleen weight, % (control = 100): relative to control of the same experiment; for Spleen weight: value ± spread; for change in the spleen weight: differences to control not significant, tendency of improved activity; for increase in the spleen weight in comparison to the control values: statistically significant, CBA mice, i.v. 200 μg/mouse
# Procedure: as §1
# [5] = Z. Immun.-Forsch. 155 (1979), 312-328; cited from earlier work
# immune response = assay: Overall immunopharmacological activity (cellular and humoral immunity) in CBA mice; type: in vivo, CBA male mice; settings: for involvement in the humoral immunity / effect on the cellular immune response: conclusion from Table 1
# Procedure: as §1
Molecule,"No spleen cells, % (control = 100) (spleen lymphocytes)","Abs. PFC, % (control = 100) [3]","PFC/l mil, % (control = 100) [3]",PFC/l mil [3],reduction of the number of spleen lymphocytes in comparison to the control values (spleen lymphocytes),No spleen cells (spleen lymphocytes),"PFC activity with respect to the number of the spleen lymphocytes, significance [3]",Abs. PFC [3],"Spleen weight, % (control = 100) [4]",Spleen weight [4],change in the spleen weight [4],other results
"CC(=O)NC1C(OC2C(CO)OC(O)C(NC(C)=O)C2OC(C)C(=O)NC(C)C(=O)NC(CCC(=O)NC(CCCC(N)C(=O)O)C(=O)NC(C)C(=O)NC(C)C(=O)O)C(N)=O)OC(CO)C(O)C1O (centres unmarked) [PGM, peptidoglycan monomer]",122% and 87% and 113% and 94% and 93% and 102% and 90%,159% and 139% and 119% and 102% and 100% and 105% and 112% and 135%,128% and 116% and 111% and 96% and 102% and 118% and 150%,156.1 ± 102.78 and 190.4 ± 79.53 and 117.1 ± 48.37 and 214.4 ± 95.61 and 163.6 ± 72.39 and 141.4 ± 40.57 and 219.1 ± 96.98 and 206.9,,,,,,,,"antimetastatic activity [1]: antimetastatic activity; solubility in organic solvents ([2]; organic solvents): insoluble; solubility in water ([2]; water): well water-soluble; Spleen weight, % (control = 100) ([4]; 10 mg/kg): 115% and 107% and 104% and 103% and 106% and 102%; immunomodulating activity [5]: immunomodulating"
NA-salt of N-acetyl-PGM [Acetyl PGM],96%,111%,119%,202.7 ± 91.97,4-6%,41.9 ± 5.66,clearly expressed enhancing tendency,85.8 ± 33.17,106%,112.3 ± 12.08 mg,,
Na-salt of N-benzoyl-PGM [Benzoyl PGM],100%,138%,142%,282.1,,34.1 ± 9.56,clearly expressed enhancing tendency,95.7 ± 28.45,114%,113.4 ± 22.28 mg,relative increase,"effect upon the number of spleen lymphocytes (spleen lymphocytes): no effect; involvement in the humoral immunity (immune response): more significantly involved; increase of PFC / overall PFC activity, significance (words) ([3]; listed as N-benzoyl): statistically significant difference; increase of PFC / overall PFC activity, significance (words) ([3]; listed as benzoyl): significant effect"
Na-salt of N-capriloyl-PGM [Capriloyl PGM],119%,159%,126%,154.2 ± 111.12,,46.1 ± 11.70,,88.5 ± 75.95,100%,120.4 ± 12.36 mg,,increase of the number of the spleen lymphocytes (spleen lymphocytes): 19%; effect on the cellular immune response (immune response): significant effect
Na-salt of N-lauroyl-PGM [Lauroyl PGM],79%,162%,155%,254.2,20%,45.2 ± 8.50,statistically significant difference,125.4 ± 68.45,112%,135.5 ± 22.60 mg,relative increase,"activity in comparison with the original PGM (immune response; administered in the same concentration): superior activity; effect on the cellular immune response (immune response): significant effect; involvement in the humoral immunity (immune response): more significantly involved; increase of PFC / overall PFC activity, significance (words) ([3]; listed as N-lauroyl): statistically significant difference; increase of PFC / overall PFC activity, significance (words) ([3]; listed as lauroyl): significant effect"
Na-salt of N-pivaloyl-PGM [Pivaloyl PGM],94%,110%,118%,163.8 ± 52.95,4-6%,42.9 ± 9.82,,76.4 ± 24.94,107%,125.5 ± 19.44 mg,relative increase,
sodium salt of N-oleoyl-PGM [Oleoyl PGM],103%,113%,109%,210.8 ± 88.40,,42.3 ± 7.96,,97.1 ± 41.86,121%,131.7 ± 14.40 mg,,increase of the number of the spleen lymphocytes (spleen lymphocytes): 3-9%; increase in the spleen weight in comparison to the control values [4]: 21%
sodium salt of N-stearoyl-PGM [Stearoyl PGM],100%,126%,118%,219.2 ± 67.11,,37.8 ± 6.90,,93.4 ± 37.55,113%,123.6 ± 18.63 mg,,effect upon the number of spleen lymphocytes (spleen lymphocytes): no effect; increase in the spleen weight in comparison to the control values [4]: 13%
